Experimental data reported in ChEMBL document CHEMBL3217613, “Novel thalidomide analogues with potent NFB and TNF expression inhibition” (Medchemcomm, 2011).

Experiments:
Type in all cases: cell-based
[1] = molecular target: T1, Nuclear factor NF-kappa-B complex (Homo sapiens) (UniProt Q00653+P19838+Q04206); test: Inhibition of NFkappaB in human FRT-Jurkat cells expressing GFP assessed as reduction of TNF expression at 10 uM after 24 hrs by flow cytometry relative to control
[2] = molecular target: T1, Nuclear factor NF-kappa-B complex (Homo sapiens); test: Inhibition of NFkappaB in human FRT-Jurkat cells expressing GFP assessed as reduction of TNF expression at 100 uM after 24 hrs by flow cytometry relative to control
Jurkat = test: Cytotoxicity against human FRT-Jurkat cells assessed as reduction of cell viability by measuring cleaved caspase 3 at 10 uM by flow cytometer
[3] = molecular target: T1, Nuclear factor NF-kappa-B complex (Homo sapiens); test: Ratio of thalidomide to compound for inhibition of NFkappaB in human FRT-Jurkat cells expressing GFP assessed as reduction of TNF expression at 10 uM

T1 sequence (P19838 whole entry, looked up): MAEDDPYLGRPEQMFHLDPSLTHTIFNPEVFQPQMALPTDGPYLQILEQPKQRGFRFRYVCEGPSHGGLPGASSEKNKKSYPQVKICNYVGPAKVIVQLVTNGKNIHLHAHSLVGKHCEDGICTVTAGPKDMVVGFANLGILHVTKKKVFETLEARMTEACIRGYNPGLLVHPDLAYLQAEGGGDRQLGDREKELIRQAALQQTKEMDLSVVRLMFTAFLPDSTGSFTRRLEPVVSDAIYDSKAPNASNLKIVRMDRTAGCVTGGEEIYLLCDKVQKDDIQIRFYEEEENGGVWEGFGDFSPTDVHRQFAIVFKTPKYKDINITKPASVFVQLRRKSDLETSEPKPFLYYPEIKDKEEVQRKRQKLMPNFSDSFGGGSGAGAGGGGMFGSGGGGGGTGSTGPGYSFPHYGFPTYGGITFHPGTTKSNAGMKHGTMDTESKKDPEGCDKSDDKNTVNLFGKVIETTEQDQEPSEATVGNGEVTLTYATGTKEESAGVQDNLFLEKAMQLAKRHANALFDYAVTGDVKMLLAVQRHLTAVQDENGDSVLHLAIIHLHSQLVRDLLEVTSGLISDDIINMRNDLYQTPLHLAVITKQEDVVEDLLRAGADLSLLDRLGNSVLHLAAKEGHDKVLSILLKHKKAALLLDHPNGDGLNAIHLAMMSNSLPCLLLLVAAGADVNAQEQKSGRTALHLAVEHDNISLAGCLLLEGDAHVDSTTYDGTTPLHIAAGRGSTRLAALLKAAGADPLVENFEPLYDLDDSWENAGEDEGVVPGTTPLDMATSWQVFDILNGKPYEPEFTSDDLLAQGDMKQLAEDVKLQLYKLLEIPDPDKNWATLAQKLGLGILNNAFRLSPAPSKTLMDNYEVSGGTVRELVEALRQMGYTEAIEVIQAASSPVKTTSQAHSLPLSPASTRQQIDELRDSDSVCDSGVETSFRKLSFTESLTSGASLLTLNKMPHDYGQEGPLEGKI
T1 sequence (Q00653 whole entry, looked up): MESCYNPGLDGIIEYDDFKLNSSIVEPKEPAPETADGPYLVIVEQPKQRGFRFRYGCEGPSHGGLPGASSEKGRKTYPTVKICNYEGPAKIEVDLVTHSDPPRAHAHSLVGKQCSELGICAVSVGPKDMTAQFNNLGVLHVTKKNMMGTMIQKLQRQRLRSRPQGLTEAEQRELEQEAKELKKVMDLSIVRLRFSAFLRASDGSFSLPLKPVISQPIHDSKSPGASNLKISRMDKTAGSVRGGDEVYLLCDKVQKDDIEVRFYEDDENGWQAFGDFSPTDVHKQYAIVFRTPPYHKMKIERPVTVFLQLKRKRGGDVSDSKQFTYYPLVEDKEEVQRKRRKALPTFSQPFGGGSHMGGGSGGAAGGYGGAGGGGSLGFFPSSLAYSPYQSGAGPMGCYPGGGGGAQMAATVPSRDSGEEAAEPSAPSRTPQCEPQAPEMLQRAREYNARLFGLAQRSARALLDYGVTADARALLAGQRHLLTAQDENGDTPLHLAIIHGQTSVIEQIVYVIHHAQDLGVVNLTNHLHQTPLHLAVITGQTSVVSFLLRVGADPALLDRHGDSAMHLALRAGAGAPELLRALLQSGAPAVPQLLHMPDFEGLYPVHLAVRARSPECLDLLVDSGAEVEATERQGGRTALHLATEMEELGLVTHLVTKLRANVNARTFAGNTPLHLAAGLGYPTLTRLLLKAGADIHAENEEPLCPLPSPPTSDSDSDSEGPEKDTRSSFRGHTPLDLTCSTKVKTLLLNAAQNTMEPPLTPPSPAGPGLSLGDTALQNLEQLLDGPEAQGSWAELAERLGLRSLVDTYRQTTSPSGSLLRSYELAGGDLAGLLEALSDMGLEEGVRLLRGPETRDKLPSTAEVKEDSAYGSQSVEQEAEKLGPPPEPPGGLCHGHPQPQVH
T1 sequence (Q04206 whole entry, looked up): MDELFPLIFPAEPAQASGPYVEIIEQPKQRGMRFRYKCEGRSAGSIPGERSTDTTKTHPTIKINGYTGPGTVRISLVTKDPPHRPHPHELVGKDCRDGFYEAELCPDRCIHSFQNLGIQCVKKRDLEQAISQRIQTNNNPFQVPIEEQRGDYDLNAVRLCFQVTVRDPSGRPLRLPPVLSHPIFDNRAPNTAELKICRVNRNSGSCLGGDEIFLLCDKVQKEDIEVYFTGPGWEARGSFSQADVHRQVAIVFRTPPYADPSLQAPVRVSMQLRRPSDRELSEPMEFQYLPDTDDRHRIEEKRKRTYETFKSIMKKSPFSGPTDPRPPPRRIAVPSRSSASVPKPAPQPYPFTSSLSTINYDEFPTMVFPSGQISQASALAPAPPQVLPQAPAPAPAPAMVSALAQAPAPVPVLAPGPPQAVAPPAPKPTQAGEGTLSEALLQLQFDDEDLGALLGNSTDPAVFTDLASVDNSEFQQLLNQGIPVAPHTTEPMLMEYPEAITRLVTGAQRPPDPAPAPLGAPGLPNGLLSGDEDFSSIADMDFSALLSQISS

SMILES	inhibition [1] [%]	inhibition [2] [%]	Activity (Jurkat) [%]	Ratio [3]
O=C1CCC(N2C(=O)c3cccc(Nc4ccccc4)c3C2=O)C(=O)N1 (configuration not stated)	4	16	89	–
O=C1CCC(N2C(=O)c3ccc(Nc4ccccc4)cc3C2=O)C(=O)N1 (configuration not stated)	6	17	–	2
COc1ccc(Nc2cccc3c2C(=O)N(C2CCC(=O)NC2=O)C3=O)cc1 (configuration not stated)	13	–	89	–
CC(C)c1ccc(Nc2ccc3c(c2)C(=O)N(C2CCC(=O)NC2=O)C3=O)cc1 (configuration not stated)	11	–	–	–
CC(=O)c1ccc(Nc2cccc3c2C(=O)N(C2CCC(=O)NC2=O)C3=O)cc1 (configuration not stated)	2	–	89	–
CCCc1ccc(Nc2cccc3c2C(=O)N(C2CCC(=O)NC2=O)C3=O)cc1 (configuration not stated)	23	–	89	–
CC(C)c1ccc(Nc2cccc3c2C(=O)N(C2CCC(=O)NC2=O)C3=O)cc1 (configuration not stated)	19	–	89	–
Cc1ccc(Nc2ccc3c(c2)C(=O)N(C2CCC(=O)NC2=O)C3=O)cc1 (configuration not stated)	5	–	–	–
CCc1ccc(Nc2cccc3c2C(=O)N(C2CCC(=O)NC2=O)C3=O)cc1 (configuration not stated)	17	–	89	–
O=C1CCC(N2C(=O)c3cccc(Nc4ccccn4)c3C2=O)C(=O)N1 (configuration not stated)	1	–	89	–
CCCc1ccc(Nc2ccc3c(c2)C(=O)N(C2CCC(=O)NC2=O)C3=O)cc1 (configuration not stated)	10	–	–	–
COc1ccc(Nc2ccc3c(c2)C(=O)N(C2CCC(=O)NC2=O)C3=O)cc1 (configuration not stated)	29	–	–	–
Nc1cccc2c1CN(C1CCC(=O)NC1=O)C2=O (configuration not stated)	4	6	–	–
CC(C)(C)c1ccc(Nc2cccc3c2C(=O)N(C2CCC(=O)NC2=O)C3=O)cc1 (configuration not stated)	36	–	89	–
Cc1ccc(Nc2cccc3c2C(=O)N(C2CCC(=O)NC2=O)C3=O)cc1 (configuration not stated)	9	–	89	–
Cc1ccccc1Nc1ccc2c(c1)C(=O)N(C1CCC(=O)NC1=O)C2=O (configuration not stated)	2	–	–	–
Cc1ccccc1Nc1cccc2c1C(=O)N(C1CCC(=O)NC1=O)C2=O (configuration not stated)	7	–	89	–
O=C1CCC(N2C(=O)c3ccc(Nc4ccc(O)cc4)cc3C2=O)C(=O)N1 (configuration not stated)	4	–	–	–
CCc1ccc(Nc2ccc3c(c2)C(=O)N(C2CCC(=O)NC2=O)C3=O)cc1 (configuration not stated)	5	–	–	–
CCOC(=O)c1ccc(Nc2cccc3c2C(=O)N(C2CCC(=O)NC2=O)C3=O)cc1 (configuration not stated)	10	–	89	–
O=C1CCC(N2C(=O)c3cccc(Nc4ccc(O)cc4)c3C2=O)C(=O)N1 (configuration not stated)	4	–	89	–
CCOC(=O)c1ccc(Nc2ccc3c(c2)C(=O)N(C2CCC(=O)NC2=O)C3=O)cc1 (configuration not stated)	5	–	–	–
CC(C)(C)c1ccc(Nc2ccc3c(c2)C(=O)N(C2CCC(=O)NC2=O)C3=O)cc1 (configuration not stated)	17	–	–	–
O=C1CCC(N2C(=O)c3ccc(Nc4ccccn4)cc3C2=O)C(=O)N1 (configuration not stated)	9	–	–	–
CCCCCc1ccc(Nc2ccc3c(c2)C(=O)N(C2CCC(=O)NC2=O)C3=O)cc1 (configuration not stated)	12	–	–	–
CC(=O)c1ccc(Nc2ccc3c(c2)C(=O)N(C2CCC(=O)NC2=O)C3=O)cc1 (configuration not stated)	-2	–	–	–
CCCCCc1ccc(Nc2cccc3c2C(=O)N(C2CCC(=O)NC2=O)C3=O)cc1 (configuration not stated)	23	–	89	–
CN(c1ccccc1)c1ccc2c(c1)C(=O)N(C1CCC(=O)NC1=O)C2=O (configuration not stated)	-2	–	–	–
O=C1CCC(N2C(=O)c3ccccc3C2=O)C(=O)N1 (racemic)	2	4	–	–
